Patent publication US20230405134A1, “NOVEL PROTAC CHIMERIC COMPOUND, AND PHARMACEUTICAL COMPOSITION COMPRISING SAME FOR PREVENTING, AMELIORATING, OR TREATING DISEASES THROUGH TARGET PROTEIN DEGRADATION” (POSTECH RESEARCH AND BUSINESS DEVELOPMENT FOUNDATION, priority 2020, published 2023)
Where a SMILES comes first, the peptide text is derived from it. Bridges are numbered along the chain shown (N, C = ends). [ ]: non-standard residue; d: D form. Cha = N[C@@H](CC1CCCCC1)C(=O)O; S5 = C=CCCC[C@](C)(N)C(=O)O

Experiments:
SRC-1 = SRC-1 (Homo sapiens, UniProt Q15788); assay: SRC-1 expression level in Colo205 cells by Western blot; type: cell-based; parameters: endogenous in cells; conditions: Colo205 cells expressing very low levels of CRBN, various concentrations
Chain of SRC-1 (Q15788 whole entry): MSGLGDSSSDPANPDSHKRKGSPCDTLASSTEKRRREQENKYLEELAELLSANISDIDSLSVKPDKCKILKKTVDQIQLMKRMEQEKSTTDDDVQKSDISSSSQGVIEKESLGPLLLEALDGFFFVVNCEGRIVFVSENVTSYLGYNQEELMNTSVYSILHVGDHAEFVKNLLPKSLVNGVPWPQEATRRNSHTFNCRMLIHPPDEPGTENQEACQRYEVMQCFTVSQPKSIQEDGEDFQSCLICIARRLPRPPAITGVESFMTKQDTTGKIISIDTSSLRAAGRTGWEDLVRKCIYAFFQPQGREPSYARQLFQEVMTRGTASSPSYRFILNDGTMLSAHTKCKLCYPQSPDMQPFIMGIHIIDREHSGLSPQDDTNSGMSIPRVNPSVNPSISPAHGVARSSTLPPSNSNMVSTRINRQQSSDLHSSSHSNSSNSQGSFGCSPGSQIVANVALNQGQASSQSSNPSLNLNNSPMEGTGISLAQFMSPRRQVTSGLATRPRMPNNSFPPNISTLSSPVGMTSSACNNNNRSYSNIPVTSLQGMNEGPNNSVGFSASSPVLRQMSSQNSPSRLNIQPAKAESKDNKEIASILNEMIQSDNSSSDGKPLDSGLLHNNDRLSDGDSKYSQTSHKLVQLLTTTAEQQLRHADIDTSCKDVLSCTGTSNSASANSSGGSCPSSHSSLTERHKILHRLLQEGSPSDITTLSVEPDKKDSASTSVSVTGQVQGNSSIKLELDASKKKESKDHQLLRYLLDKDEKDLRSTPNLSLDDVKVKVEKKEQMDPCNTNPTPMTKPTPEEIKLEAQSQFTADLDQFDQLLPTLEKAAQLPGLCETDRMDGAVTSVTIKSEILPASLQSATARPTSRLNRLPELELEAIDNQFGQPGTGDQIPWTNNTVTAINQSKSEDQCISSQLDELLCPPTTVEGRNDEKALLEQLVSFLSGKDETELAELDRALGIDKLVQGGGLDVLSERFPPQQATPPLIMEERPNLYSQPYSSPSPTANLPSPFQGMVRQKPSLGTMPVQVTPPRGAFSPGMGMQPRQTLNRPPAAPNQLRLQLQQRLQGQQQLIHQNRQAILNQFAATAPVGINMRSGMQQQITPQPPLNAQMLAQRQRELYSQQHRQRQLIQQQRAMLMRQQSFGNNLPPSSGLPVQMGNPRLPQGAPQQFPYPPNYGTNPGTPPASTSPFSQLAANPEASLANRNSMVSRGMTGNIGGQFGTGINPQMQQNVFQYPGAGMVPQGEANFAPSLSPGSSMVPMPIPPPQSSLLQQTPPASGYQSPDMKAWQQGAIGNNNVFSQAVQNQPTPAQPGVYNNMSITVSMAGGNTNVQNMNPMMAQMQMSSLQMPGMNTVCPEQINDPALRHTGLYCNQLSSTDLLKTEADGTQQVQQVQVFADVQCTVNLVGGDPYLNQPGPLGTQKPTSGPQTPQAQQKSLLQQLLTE
Protocol: MDA-MB-231 cells were cultured at 37° C. in Dulbecco's modified Eagle's medium (DMEM) supplemented with penicillin-streptomycin containing 10% fetal bovine serum (FBS) and 5% CO2. Colo205 and A549 cells were cultured at 37° C. in Roswell Park Memorial Institute medium supplemented with penicillin-streptomycin with 10% FBS and 5% CO2.
In order to compare the SRC-1 proteolytic activity of ND1-YL2 and CL1-YL2 peptides in cells, A549 cells, which are human lung carcinoma cells, were treated with various concentrations of CL1-YL2, and the effect on SRC-1 degradation was analyzed by Western blot. A549 cells were seeded at 5×10^5 cells per well in a 6-well plate (Corning). Colo205 cells were seeded at 6×10^5 cells per well in a 6-well plate. After incubation at 37° C. for 24 hours, the cells were treated with the synthesized compounds in Opti-MEM medium. The cells were washed twice with cold Dulbecco's phosphate buffered saline (DPBS) prior to cell lysis. In order to lyse the cells, the cells on ice were treated with lysis buffer (50 mM Tris HCl pH 7.4, 150 mM NaCl, 1% TritonX, 1 mM EDTA, 1 mM DTT and 1×protease inhibitor cocktail). The cell lysate was centrifuged at 13,000×rpm for 15 minutes at 4° C. The supernatant was collected and the protein concentration was determined by Pierce™ 660 nm protein assay. […]

SRC-3 = biological target: T1, SRC-3 (Homo sapiens, UniProt Q9Y6Q9); assay: SRC-3 expression level in MDA-MB-231 cells by Western blot; type: cell-based; conditions: 20 μM
T1 construct: endogenous in cells; host or cells: MDA-MB-231
T1 sequence (Q9Y6Q9 whole entry): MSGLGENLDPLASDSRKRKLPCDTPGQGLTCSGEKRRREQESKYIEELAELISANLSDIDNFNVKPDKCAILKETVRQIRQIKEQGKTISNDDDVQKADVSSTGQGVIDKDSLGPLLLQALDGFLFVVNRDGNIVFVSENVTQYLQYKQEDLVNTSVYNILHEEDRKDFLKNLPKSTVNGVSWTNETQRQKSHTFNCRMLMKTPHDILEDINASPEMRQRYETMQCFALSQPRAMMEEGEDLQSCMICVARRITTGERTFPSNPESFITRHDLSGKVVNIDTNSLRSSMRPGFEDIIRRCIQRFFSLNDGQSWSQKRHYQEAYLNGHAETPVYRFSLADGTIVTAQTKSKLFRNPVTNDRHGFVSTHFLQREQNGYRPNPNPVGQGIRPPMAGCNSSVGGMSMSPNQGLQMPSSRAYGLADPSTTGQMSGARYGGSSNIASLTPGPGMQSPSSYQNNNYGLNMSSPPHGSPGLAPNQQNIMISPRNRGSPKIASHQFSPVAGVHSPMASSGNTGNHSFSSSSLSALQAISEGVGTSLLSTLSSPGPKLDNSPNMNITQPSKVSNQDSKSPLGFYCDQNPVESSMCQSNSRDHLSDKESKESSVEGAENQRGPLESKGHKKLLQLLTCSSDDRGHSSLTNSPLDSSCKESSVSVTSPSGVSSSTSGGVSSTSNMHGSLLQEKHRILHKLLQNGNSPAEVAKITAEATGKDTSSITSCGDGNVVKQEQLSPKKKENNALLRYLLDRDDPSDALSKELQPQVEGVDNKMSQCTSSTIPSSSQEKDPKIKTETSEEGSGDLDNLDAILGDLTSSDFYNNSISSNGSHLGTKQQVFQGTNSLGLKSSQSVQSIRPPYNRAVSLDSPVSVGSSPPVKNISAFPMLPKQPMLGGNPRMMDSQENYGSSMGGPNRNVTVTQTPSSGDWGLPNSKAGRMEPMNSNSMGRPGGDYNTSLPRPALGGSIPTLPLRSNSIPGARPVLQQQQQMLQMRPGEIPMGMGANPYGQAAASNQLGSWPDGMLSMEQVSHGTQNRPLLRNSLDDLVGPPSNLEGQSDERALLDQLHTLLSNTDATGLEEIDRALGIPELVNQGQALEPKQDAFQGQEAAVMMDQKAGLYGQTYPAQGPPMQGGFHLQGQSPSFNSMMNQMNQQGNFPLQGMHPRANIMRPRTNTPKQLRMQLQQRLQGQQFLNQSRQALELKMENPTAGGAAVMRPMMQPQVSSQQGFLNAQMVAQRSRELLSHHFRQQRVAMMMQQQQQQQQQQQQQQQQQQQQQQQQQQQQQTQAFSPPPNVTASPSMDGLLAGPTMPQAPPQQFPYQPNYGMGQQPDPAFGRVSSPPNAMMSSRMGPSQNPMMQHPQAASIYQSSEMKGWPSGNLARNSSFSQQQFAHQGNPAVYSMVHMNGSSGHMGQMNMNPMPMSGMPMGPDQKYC
Protocol: It was confirmed whether ND1-YL2 could selectively target and degrade SRC-1 over other SRC family members. Considering the structural similarity between SRC members, it can be predicted that ND1-YL2 will be able to bind to and degrade other members of the SRC family, such as SRC-3. […] To test this, TNBC MDA-MB-231 cells were treated with ND1-YL2 and the amounts of SRC-3 and SRC-1 were confirmed at the cellular level by Western blotting (FIG. 17).

MDA-MB-231 cells = assay: Matrigel invasion assay; type: cell-based, human; conditions: 24 hours; ND1-YL2 various concentrations, YL2 and RLAA 20 μM
Protocol: The inhibition of cell migration may be due to the inhibitory effect of ND1-YL2 on cell growth. In order to exclude this possibility, the invasive ability of cells treated with ND1-YL2 was confirmed. A Corning Matrigel insert (Corning) was placed in a 24-well plate. After hydrating the Matrigel insert with an FBS-free DMEM medium for 2 hours in a CO2 incubator, MDA-MB-231 cells were cultured in the Matrigel insert (4×10^4 cells/insert) with 125 μL of Opti-MEM medium. Another 125 μl of compound containing Opti-MEM medium was added to the insert. The lower chamber was filled with 500 μL of DMEM medium containing 10% FBS. The Matrigel chamber was cultured for 24 hours under the conditions of 37° C. and 5% CO2. The cell culture media of the upper and lower chambers were removed and washed three times with cold DPBS. Non-invasive cells were then removed with a cotton swab. The bottom of the chamber was fixed with 4% formaldehyde for 10 minutes at room temperature, and stained with Hoechst 33342 (5 μg/mL) for 5 minutes in a CO2 incubator. After washed with DPBS, images of infiltrated cells were obtained by a fluorescence microscope. The percentage of the invasive cells was calculated using the product manual. MDA-MB-231 cells were treated with various concentrations of ND1-YL2, N-degron (20 μM) or YL2 (20 μM). After 24 hours, images of the invaded cells were obtained by a fluorescence microscope, and the number of invaded cells was quantified through the images. […] The inhibitory activity of ND1-YL2 on cell migration and invasion is in good agreement with previous SRC-1 knockdown experiments.

MDA-MB-231 = assay: Cell viability assay; type: cell-based, human; conditions: MDA-MB-231, various concentrations, 48 hours
Protocol: (§1) To further confirm the above results, an MTT cell viability assay was performed. MDA-MB-231 (1×10^4 cells/well), HEK293T (1×10^4 cells/well) and Colo205 (2×10^4 cells/well) cells were seeded in a 96-well plate, and cultured under the conditions of 37° C. and 5% carbon dioxide. After 24 hours, the cells were washed twice with DPBS and treated with DMSO or various concentrations of ND1-YL2 in Opti-MEM medium for 48 hours. Cell viability was measured by the Cyto X cell viability assay kit (LPS solution) according to the manufacturer's instructions.

Colo205 = assay: Cell viability assay; type: cell-based, human; conditions: Colo205, various concentrations, 48 hours
Protocol: as §1

CC(C)C[C@H](NC(=O)[C@H](C)NC(=O)[C@H](C)NC(=O)[C@H](C)NC(=O)[C@H](C)NC(=O)[C@H](CC(C)C)NC(=O)[C@@H](N)CCCNC(=N)N)C(=O)N[C@@H](CC(C)C)C(=O)N1CCC[C@H]1C(=O)N1CCC[C@H]1C(=O)N[C@H](C(=O)N[C@@H](CCC(=O)O)C(=O)N[C@@H](CCC(N)=O)C(=O)N[C@@H](CC(=O)O)C(=O)N[C@@H](CC(C)C)C(=O)N[C@@]1(C)CCC/C=C\CCC[C@@](C)(C(=O)N[C@@H](Cc2ccc(O)cc2)C(N)=O)NC(=O)[C@H](CC2CCCCC2)NC(=O)[C@H](CC(C)C)NC(=O)[C@H](CCCCN)NC1=O)[C@@H](C)O [ND1-YL2] (H-RLAAAALLPPTEQDL[S5]KL[Cha][S5]Y-NH2; staple (Z) 16-20)
Effect on SRC-1 expression level (SRC-1): induced a decrease in the expression level of SRC-1 in a dose-dependent manner
Degradation effect on SRC-3 (SRC-3): no degradation effect was observed
Effect on cell invasion (MDA-MB-231 cells): cell invasion decreased as the treatment concentration of ND1-YL2 increased
Effect on cell survival (MDA-MB-231): did not significantly affect the survival
Effect on cell survival (Colo205): did not significantly affect the survival
